For this assay, the system named is Tzc-ACR-16-REM. Description: Voltage-clamp electrophysiology, coding-sequence modified ACR-16 in oocytes. Type of assay: cell-based, T. callipaeda. Particulars: B. malayi ric-3 co-injected; agonist not named in the legend (ACh by the matching native values). On the procedure:
B. malayi acr-16 and accessory proteins ric-3, unc-50, unc-74 and molo-1 were cloned from adult female B. malayi cDNA received as a gift from Dr. T. Geary using the primers described in S1 Table. B. malayi eat-18 was prepared from two overlapping oligonucleotide primers. Other subunits were synthesized from their predicted genome sequence (Gene Universal, USA) (S2 Table). […] All sequences were cloned into the pTD2 oocyte expression vector. Asu-ACR-16 and Tzc-ACR-16 chimeras were constructed using appropriate restriction enzymes, reciprocal exchange through ligation and confirmed by sequencing (McLab, USA).
cRNA for oocyte injection was prepared with the mMESSAGE mMACHINE T7 kit following manufacturers protocol (Ambion, USA). Concentration was determined using a Nanodrop spectrophotometer. Desired subunit combinations with associated accessory proteins were mixed and diluted with nuclease-free water to a final concentration of 250 ng/uL for each construct.
Adult female X. laevis oocyte extraction was performed in accordance with the McGill University Animal Use Protocol 2015–7758 following standard protocol. […] All electrophysiology was conducted two days post-injection, except for the expression analysis assay in which oocytes were measured every day after injection for three consecutive days. […]

Consider `CC(=O)OCC[N+](C)(C)C` [ACh, acetylcholine], for which the current response was 587 ± 415 nA.

For the origin of these results see PMC9714921 (PLOS Pathogens, 2022).
